This passage reports viability results from patent US20250144069A1, “BILOBALIDE DERIVATIVE COMPOUNDS FOR TREATING NEUROLOGICAL DISEASES AND CANCERS” (The Chinese University of Hong Kong, priority 2023, published 2025).

Usually viability stands for a read-out of living cells in per cent, often relative to untreated cells.

Molecules are shown by their SMILES. Read-outs that look alike come from different tables or passages of the source.

Common to all, as to format: cell-based, human
For one assay, the system named is Jurkat cells. In words: Single-dose CCK-8 cell viability screening (suspension cells). The settings on record: Homo sapiens, 48 h. On the procedure:
(§1) In this example, the anti-cancer properties of the BB analogues described in Table 1d were evaluated. Single-dose screening approach is used for initial testing to assess the cytotoxic effect of the BB analogues (also referred to as ‘BB compounds’) on Jurkat cells (human T cell leukaemia cells) and A549 cells (human lung cancer cells).
Method for Suspension Cells (Jurkat Cells)
5000 cells/90 uL were seeded in 96-well plates. 10 uL of 500 uM compound (10×) was added to each well in 6 replicates. The following controls were prepared.
Blank control: 10 uL 1% DMSO in media with no cells per well.
Positive control: 10 uL of 100 uM 5-flurouracil (10×) per well.
Negative control: 10 uL of 1% DMSO in media (10×) per well.
Each 96-well plate included 7 BB analogues and the complete set of controls (in 6 replicates).
(§2) Cells were incubated at 37° C.+5% CO2 for 46 hours. 10 uL of CCK8 solution was added to each well. Cells were then incubated at 37° C.+5% CO2 for 2 hours. Absorbance at 450 nm was measured using a multiplate reader.
(§3) Viability was calculated using the equation: […]
(§4) The benchmark in Table 2 was used to define the activities of each compound.

The subject of a further assay is A549 cells. In words: Single-dose CCK-8 cell viability screening (adherent cells). The settings on record: Homo sapiens, read-out: % Viability (50 uM, 48 h) A549. On the procedure: as §1
(§5) Method for Adherent Cells (A549 Cells)
(§6) In this example, 5000 cells/100 uL were seeded in 96-well plates and incubate at 37° C.+5% CO2 overnight. Media were replaced with 100 uL of 50 uM compound per well in 6 replicates. The following controls were prepared.
(§7) Blank control: 100 uL 0.1% DMSO in media with no cells per well.
(§8) Positive control: 100 uL of 10 uM 5-flurouracil per well.
(§9) Negative control: 100 uL of 0.1% DMSO in media per well.
(§10) Each 96-well plate included 7 compounds and the complete set of controls (in 6 replicates).
as §2, §3, §4

Experiment in assay [1]: as above
To be noted: Homo sapiens, average of A549 and Jurkat % viability, 50 uM, 48 h. The protocol: as §1, §5, §6, §7, §8, §9, §10, §2, §3, §4

The mark [2] stands for this setting: Jurkat, Jurkat cells, 50 uM, CCK-8, read-out: % Viability (50 uM, 48 h) Jurkat.
The mark [3] stands for this setting: A549, 48 h, A549 cells, 50 uM, 48 h, CCK-8.
[4] abbreviates: Jurkat, read-out: % Viability (50 uM, 48 h) Jurkat.

With `COc1cccc(N2C(=O)[C@H](OC(=O)c3ccccc3)[C@@]34[C@@H]2OC(=O)[C@@]32CC(=O)O[C@H]2C[C@@]4(O)C(C)(C)C)c1` [JW092, (3aS,5aS,8R,9R,10aS)-9-(tert-butyl)-9-hydroxy-6-(3-methoxyphenyl)-2,4,7-trioxodecahydrofuro [3″,2″:2′,3′]cyclopenta [1′,2′:3,4]furo [2,3-b]pyrrol-8-yl benzoate], the viability at 50 µM worked out at 69.3% in the assay on Jurkat cells (setting [2]); 53.7% with A549 cells (setting [3]); 61.5% in assay [1] (A549, 48 h).
With `CC(C)(C)[C@]1(O)C[C@@H]2OC(=O)C[C@@]23C(=O)O[C@@H]2N(c4ccc(N5CCOCC5)cc4)C(=O)[C@H](O)[C@]213` [XBB-042, (3aS,5aS,8R,8aS,9R,10aS)-9-(tert-butyl)-8,9-dihydroxy-6-(4-morpholinophenyl)tetrahydro-4H,9H-furo [3″,2″:2′,3′]cyclopenta [1′,2′:3,4]furo [2,3-b]pyrrole-2,4,7(3H,8H)-trione], the viability at 50 µM in the assay on Jurkat cells (setting [4]) was 97.8%; with A549 cells (A549, 48 h) it was 95.6%; in assay [1] (A549, 48 h), 96.7%.
Turning to `CC(=O)O[C@H]1C(=O)N(CCn2cc3ccccc3c2C)[C@H]2OC(=O)[C@]34CC(=O)O[C@H]3C=C(C(C)(C)C)[C@@]214` [XBB-054], the viability at 50 µM in the assay with Jurkat cells (setting [2]) stood at 93%; with A549 cells (setting [3]), 88.8%; in assay [1] (A549, 48 h), 90.9%.
With `CC(C)(C)[C@]1(O)C[C@@H]2OC(=O)C[C@@]23C(=O)O[C@@H]2N(c4ccccc4)C(=O)[C@H](OC(=O)c4ccccc4)[C@]213` [XBB-034, (3aS,5aS,8R,8aS,9R,10aS)-9-(tert-butyl)-9-hydroxy-2,4,7-trioxo-6-phenyloctahydro-4H,9H-furo[3″,2″:2′,3′]cyclopenta [1′,2′:3,4]furo[2,3-b]pyrrol-8-yl benzoate], the viability at 50 µM with Jurkat cells (setting [4]) stood at 89.1%; with A549 cells (A549, 48 h), 56%; in assay [1], 72.5%.
In the case of `C=C(C)[C@@]1(C)C[C@@H]2OC(=O)C[C@@]23C(=O)O[C@@H]2N(c4ccccc4)NC(=O)[C@H](OC(C)=O)[C@]213` [XBB-075], the viability at 50 µM came out at 101% in the assay on Jurkat cells (setting [2]); 67.4% in the assay on A549 cells (setting [3]); 84% in assay [1] (A549, 48 h).
The corresponding values for `CC(C)(C)[C@]1(O)C[C@@H]2OC(=O)C[C@@]23C(=O)O[C@@H]2N(c4ccc(N5CCOCC5)cc4)C(=O)[C@H](OC(=O)c4ccccc4)[C@]213` [XBB-038, (3aS,5aS,8R,8aS,9R,10aS)-9-(tert-butyl)-9-hydroxy-6-(4-morpholinophenyl)-2,4,7-trioxooctahydro-4H,9H-furo [3″,2″:2′,3′]cyclopenta [1′,2′:3,4]furo [2,3-b]pyrrol-8-yl benzoate] are 84.8%, 95.3% and 90.1%.
The matching figures for `CC(C)(C)OC(=O)Nc1ccc(N2C(=O)[C@H](OC(=O)c3ccccc3)[C@@]34[C@@H]2OC(=O)[C@@]32CC(=O)O[C@H]2C[C@@]4(O)C(C)(C)C)cc1` [XBB-036]: 88.8%, 52.4% and 70.6%.
The corresponding values for `CC(C)(C)[C@]1(O)C[C@@H]2OC(=O)C[C@@]23C(=O)O[C@@H]2N(c4cccc5c4OCO5)C(=O)[C@H](OC(=O)c4ccccc4)[C@]213` [XBB-068] are 101%, 93.6% and 97.5%.
As for `CC(C)(C)[C@]1(O)C[C@@H]2OC(=O)C[C@@]23C(=O)O[C@@H]2N(N)C(=O)[C@H](O)[C@]213` [JW072, (3aS,5aS,8R,8aS,9R,10aS)-6-amino-9-(tert-butyl)-8,9-dihydroxytetrahydro-4H,9H-furo [3″,2″:2′,3′]cyclopenta [1′,2′:3,4]furo [2,3-b]pyrrole-2,4,7(3H,8H)-trione], the viability at 50 µM is 97.2% with Jurkat cells (Jurkat cells, 50 uM, CCK-8, read-out: % Viability (50 uM, 48 h) Jurkat); 103% in the assay with A549 cells (A549 cells, 50 uM, 48 h, CCK-8); 100% in assay [1].
As to `CC(C)(C)[C@]1(O)C[C@@H]2OC(=O)C[C@@]23C(=O)O[C@@H]2N(c4ccc(O)cc4)C(=O)[C@H](OC(=O)c4ccccc4)[C@]213` [JW103, (3aS,5aS,8R,9R,10aS)-9-(tert-butyl)-6-(4-hydroxyphenyl)-9-hydroxy-2,4,7-trioxodecahydrofuro [3″,2″:2′,3′]cyclopenta [1′,2′:3,4]furo [2,3-b]pyrrol-8-yl benzoate], the viability at 50 µM came out at 82.2% in the assay with Jurkat cells (setting [2]); 102% with A549 cells (setting [3]); 92.2% in assay [1] (A549, 48 h).
In the case of `Cc1ccccc1N1C(=O)[C@H](OC(=O)c2ccccc2)[C@@]23[C@@H]1OC(=O)[C@@]21CC(=O)O[C@H]1C[C@@]3(O)C(C)(C)C` [P-34, (3aS,5aS,8R,9R,10aS)-9-(tert-butyl)-9-hydroxy-2,4,7-trioxo-6-(2-methylphenyl)octahydro-4H,9H-furo [3″,2″:2′,3′]cyclopenta [1′,2′:3,4]furo [2,3-b]pyrrol-8-yl benzoate], the viability at 50 µM with Jurkat cells (setting [2]) worked out at 73.8%; with A549 cells (setting [3]) it was 80.2%; in assay [1] (A549, 48 h), 77%.
`CC(C)(C)[C@]1(O)C[C@@H]2OC(=O)C[C@@]23C(=O)O[C@@H]2N(c4cccnc4)C(=O)[C@H](OC(=O)c4ccccc4)[C@]213` [XBB-040, (3aS,5aS,8R,8aS,9R,10aS)-9-(tert-butyl)-9-hydroxy-2,4,7-trioxo-6-(pyridin-3-yl)octahydro-4H,9H-furo [3″,2″:2′,3′]cyclopenta [1′,2′:3,4]furo [2,3-b]pyrrol-8-yl benzoate]: the viability at 50 µM worked out at 98.4% with Jurkat cells (setting [4]); 99.6% in the assay with A549 cells (A549, 48 h); 99% in assay [1] (A549, 48 h).
For the molecule `CC(=O)Nc1ccc(N2C(=O)[C@H](OC(=O)c3ccccc3)[C@@]34[C@@H]2OC(=O)[C@@]32CC(=O)O[C@H]2C[C@@]4(O)C(C)(C)C)cc1` [XBB-035, (3aS,5aS,8R,8aS,9R,10aS)-6-(4-acetamidophenyl)-9-(tert-butyl)-9-hydroxy-2,4,7-trioxooctahydro-4H,9H-furo [3″,2″:2′,3′]cyclopenta [1′,2′:3,4]furo[2,3-b]pyrrol-8-yl benzoate], the viability at 50 µM in the assay on Jurkat cells (setting [2]) was 87%; with A549 cells (setting [3]) it was 66.9%; in assay [1] (A549, 48 h), 76.9%.
The matching figures for `CC(C)(C)[C@]1(O)C[C@@H]2OC(=O)C[C@@]23C(=O)O[C@@H]2N(c4ccc5c(c4)OCO5)C(=O)[C@H](OC(=O)c4ccccc4)[C@]213` [XBB-039, (3aS,5aS,8R,8aS,9R,10aS)-6-(benzo[d][1,3]dioxol-5-yl)-9-(tert-butyl)-9-hydroxy-2,4,7-trioxooctahydro-4H,9H-furo [3″,2″:2′,3′]cyclopenta [1′,2′:3,4]furo [2,3-b]pyrrol-8-yl benzoate]: 69.7%, 78.4% and 74.1%.
Regarding `C=C(C)[C@@]1(C)C[C@@H]2OC(=O)C[C@@]23C(=O)O[C@@H]2OC(=O)[C@H](OC(C)=O)[C@]213` [XBB-009], the viability at 50 µM with Jurkat cells (setting [4]) came out at 107%; in the assay with A549 cells (A549, 48 h) it was 103%; in assay [1], 105%.
As for `COc1ccc(N2C(=O)[C@H](OC(=O)c3ccccc3)[C@@]34[C@@H]2OC(=O)[C@@]32CC(=O)O[C@H]2C[C@@]4(O)C(C)(C)C)cc1` [JW093, (3aS,5aS,8R,9R,10aS)-9-(tert-butyl)-9-hydroxy-6-(4-methoxyphenyl)-2,4,7-trioxodecahydrofuro [3″,2″:2′,3′]cyclopenta [1′,2′:3,4]furo [2,3-b]pyrrol-8-yl benzoate], the viability at 50 µM in the assay on Jurkat cells (setting [2]) was determined as 66.3%; with A549 cells (setting [3]), 68.7%; in assay [1] (A549, 48 h), 67.5%.
Regarding `CC(C)(C)[C@]1(O)C[C@@H]2OC(=O)C[C@@]23C(=O)O[C@@H]2N(c4ccc(F)cc4)C(=O)[C@H](OC(=O)c4ccccc4)[C@]213` [P-28, (3aS,5aS,8R,9R,10aS)-9-(tert-butyl)-9-hydroxy-2,4,7-trioxo-6-(4-fluorophenyl)octahydro-4H,9H-furo [3″,2″:2′,3′]cyclopenta [1′,2′:3,4]furo [2,3-b]pyrrol-8-yl benzoate], the viability at 50 µM in the assay on Jurkat cells (setting [4]) came to 69.2%; in the assay on A549 cells (A549, 48 h) it was 76.2%; in assay [1] (A549, 48 h), 72.7%.
